According to patent publication US8796246B2, “9, 10-secopregnane derivative and pharmaceutical” (Nippon Shinyaku Co., Ltd., priority 2006, dated 2014):

How the values were obtained:
[1] = Metabolic rate in human liver microsome; assay type: in vitro ADME; conditions: pooled human liver microsome 1 mg/mL protein, NADPH-regenerating system, 37° C., 2-60 minutes, HPLC
Experimental: The compounds of the invention mentioned in Examples and maxacalcitol were compared with each other with respect to the metabolic rate in human liver microsome.
As to the pooled human liver microsome (HHM-0323), those manufactured by Tissue Transformation Technologies were used. A 0.25 M potassium phosphate buffer (pH 7.4) (200 μL), 5 μL of a 250 μM solution of each compound to be tested in DMSO, 50 μL of an NADPH-regenerating system (where 20 mg of β-NADP^+, 70 mg of glucose-6-phosphate, 40 units of glucose-6-phosphate dehydrogenase and 20 mg of magnesium chloride were dissolved in 1 mL of distilled water) and 220 μL of distilled water were added to a microtube and the mixture was subjected to a preincubation for 5 minutes at 37° C. Reaction was started by an addition of 25 μL of human liver microsome (final concentration of protein: 1 mg/mL). Incubation was performed for 2, 10, 30 or 60 minutes and the reaction was stopped by an addition of 500 μL of acetonitrile. After centrifugation at 13,000 rpm for 5 minutes, each test compound in the supernatant (25 μL) was measured by HPLC under the following conditions.
Inertsil ODS-3 (4.6×150 mm; GL Science) was used as a column. With regard to the mobile phase, a solution A (acetonitrile/0.1% aqueous solution of ammonium acetate=10/90) and a solution B (acetonitrile/0.1% aqueous solution of ammonium acetate=90/10) were used under the linear gradient conditions mentioned in Tables 5 to 7. The column temperature, the flow rate and the wavelength for detection were set at 40° C., 1.0 mL/min. and UV 250 or 270 nm, respectively.
The compound mentioned in Example 38 was analyzed under the condition shown in Table 6; the compounds mentioned in Examples 55, 56, 68, 69, 72 and 73 were under the condition shown in Table 7; and the other compounds were under the condition shown in Table 5.
The compounds described in Examples 40, 43 to 48, 50, 55, 56, 58, 60, 61, 63 and 65 to 73 were analyzed under the condition of UV 250 nm; and the other compounds were under the condition of UV 270 nm.
From the HPLC test results as above, the metabolic rate of the test compound was calculated.

[2] = system: human acute myelogenous leukemia cell line HL-60; assay: Ability to induce differentiation of HL-60 cells (oxygen radical production after phorbol ester, WST-1); assay type: cell-based; conditions: 72 hours incubation, then WST-1 and phorbol 12,13-didecanoate for 4 hours, absorbance at 450 nm
Description: It is known that the human acute myelogenous leukemia cell line HL-60is differentiated into neutrophil-like cells by active vitamin D or the like. Thus, the cells after the differentiation begin to express a surface marker such as CD11and CD32and, at the same time, they produce an oxygen radical by stimulation with a phorbol ester or the like. In this test, the above-mentioned property was utilized. As an index of the ability to induce differentiation of the HL-60cells, the amount of the oxygen radical produced by stimulation with a phorbol ester was measured, and the compounds of the invention mentioned in Examples were compared with maxacalcitol with respect to the vitamin D3activity thereof. In use of commercial reagents and kits, if any, the indications attached thereto were referred to.
HL-60cells (supplied from ATCC) were seeded on a 96-well plate at 5×10^3cells/100μL/well and a test compound in two-fold dilution series from 10^−7M was added to the second to the twelfth rows (maximum concentration: the second row). The first row was used for blank. After incubation for 72 hours under a moisturized condition in the presence of 5% CO2 at 37° C. using a CO2 incubator, 10 μL of PBS containing 50 mM WST-1 (manufactured by Takara Bio) and 10 μM phorbol 12,13-didecanoate (manufactured by SIGMA) were added to each well followed by further incubation for 4 hours. Absorbance (reference wavelength: […]) at […] of the WST-1 formazane dye generated by conversion from WST-1 by oxygen radical produced from the differentiated HL-60 cells was measured by a Benchmark microplate reader (manufactured by BioRad). An absorbance meter control software MPM3 (manufactured by BioRad) was used and, from a concentration-absorbance curve, the 50%-maximal effective concentration (hereinafter, referred to as “EC50”) of each was determined by a logistic curve regression.

Metabolic Rate [1] [pmol/min/mg]	EC50 [2] [nM]	SMILES
43	0.82	C=C1C(=CC=C2CCCC3(C)C2CCC3C(C)OC(=O)CCC(C)(O)C(F)(F)F)CC(O)CC1O (single isomer, unassigned) [Compound of Example 35, (1S,3R,20S)-20-[(4R) or (4S)-5,5,5-trifluoro-4-hydroxy-4-methylpentanoyloxy]-9,10-secopregna-5Z,7E,10(19)-triene-1,3-diol]
40	1.1	C=C1C(=CC=C2CCCC3(C)C(C(C)OC(=O)CCC(C)(O)C(F)(F)F)=CCC23)CC(O)CC1O (single isomer, unassigned) [Compound of Example 71, (1S,3R,20S)-20-[(4S) or (4R)-5,5,5-trifluoro-4-hydroxy-4-methylpentanoyloxy]-9,10-secopregna-5Z,7E,10(19),16-tetraene-1,3-diol]
22	4.5	C=C1C(=CC=C2CCCC3(C)C2CCC3C(C)OC(=O)CCCC(C)(C)O)CC(O)CC1O [Compound of Example 3, (1S,3R,20S)-20-(5-hydroxy-5-methylhexanoyloxy)-9,10-secopregna-5Z,7E,10(19)-triene-1,3-diol]
38	3.4	C=C1C(=CC=C2CCCC3(C)C2CCC3C(C)OC(=O)C=CC(C)(C)O)CC(O)CC1O [Compound of Example 8, (1S,3R,20S)-20-[(2E)-4-hydroxy-4-methylpent-2-enoyloxy]-9,10-secopregna-5Z,7E,10(19)-triene-1,3-diol]
58	0.99	C=C1C(=CC=C2CCCC3(C)C2CCC3C(C)OC(=O)C=CC(O)(CC)CC)CC(O)CC1O [Compound of Example 10, (1S,3R,20S)-20-[(2E)-4-ethyl-4-hydroxyhex-2-enoyloxy]-9,10-secopregna-5Z,7E,10(19)-triene-1,3-diol]
38	0.53	C=C1C(=CC=C2CCCC3(C)C2CCC3C(C)OC(=O)CCC(O)(CC)CC)CC(O)CC1O [Compound of Example 13, (1S,3R,20S)-20-(4-ethyl-4-hydroxyhexanoyloxy)-9,10-secopregna-5Z,7E,10(19)-triene-1,3-diol]
39	1.4	C=C1C(=CC=C2CCCC3(C)C2CCC3C(C)OC(=O)CCC2(O)CCCC2)CC(O)CC1O [Compound of Example 20, (1S,3R,20S)-20-[3-(1-hydroxycyclopentyl)propanoyloxy]-9,10-secopregna-5Z,7E,10(19)-triene-1,3-diol]
36	4.2	C=C1C(=CC=C2CCCC3(C)C2CCC3C(C)OC(=O)CCCC(O)(CC)CC)CC(O)CC1O [Compound of Example 34, (1S,3R,20S)-20-(5-hydroxy-5-ethylheptanoyloxy)-9,10-secopregna-5Z,7E,10(19)-triene-1,3-diol]
36	1.1	C=C1C(=CC=C2CCCC3(C)C2CCC3C(C)OC(=O)CCCC(C)(O)C(F)(F)F)CC(O)CC1O [Compound of Example 37, (1S,3R,20S)-20-(6,6,6-trifluoro-5-hydroxy-5-methylhexanoyloxy)-9,10-secopregna-5Z,7E,10(19)-triene-1,3-diol]
33	2.3	C=C1C(=CC=C2CCCC3(C)C2CCC3C(C)OC(=O)CC(=O)C(C)(O)C(F)(F)F)CC(O)CC1O [Compound of Example 38, (1S,3R,20S)-20-(5,5,5-trifluoro-4-hydroxy-4-methyl-3-oxopentanoyloxy)-9,10-secopregna-5Z,7E,10(19)-triene-1,3-diol]
26	1.4	C=C1C(=CC=C2CCCC3(C)C(C(C)OC(=O)CCC(C)(C)O)=CCC23)CC(O)CC1O [Compound of Example 39, (1S,3R,20S)-20-(4-hydroxy-4-methylpentanoyloxy)-9,10-secopregna-5Z,7E,10(19),16-tetraene-1,3-diol]
65	1.6	CC(OC(=O)CCC(C)(C)O)C1CCC2C(=CC=C3CC(O)CC(O)C3)CCCC21C [Compound of Example 40, (1R,3R,20S)-19-nor-20-(4-hydroxy-4-methylpentanoyloxy)-9,10-secopregna-5Z,7E-diene-1,3-diol]
46	0.26	C=C1C(O)CC(=CC=C2CCCC3(C)C2CCC3C(C)OC(=O)CCC(C)(C)O)CC1O [Compound of Example 41, (1R,3R,20S)-2-methylene-19-nor-20-(4-hydroxy-4-methylpentanoyloxy)-9,10-secopregna-5Z,7E-diene-1,3-diol]
95	0.25	C=C1C(O)CC(=CC=C2CCCC3(C)C2CCC3C(C)OC(=O)CCC(C)(O)C(F)(F)F)CC1O [Compound of Example 44, (1R,3R,20S)-2-methylene-19-nor-20-(5,5,5-trifluoro-4-hydroxy-4-methylpentanoyloxy)-9,10-secopregna-5Z,7E-diene-1,3-diol]
40	0.31	C=C1C(O)CC(=CC=C2CCCC3(C)C2CCC3C(C)OC(=O)C=CC(O)(CC)CC)CC1O [Compound of Example 45, (1R,3R,20S)-2-methylene-19-nor-20-[(2E)-4-ethyl-4-hydroxyhex-2-enoyloxy]-9,10-secopregna-5Z,7E-diene-1,3-diol]
45	1.4	CC(OC(=O)CCC(C)(C)O)C1=CCC2C(=CC=C3CC(O)CC(O)C3)CCCC12C [Compound of Example 46, (1R,3R,20S)-19-nor-20-(4-hydroxy-4-methylpentanoyloxy)-9,10-secopregna-5Z,7E,16-triene-1,3-diol]
45	0.043	CC(OC(=O)CCC(C)(C)O)C1CCC2C(=CC=C3CC(O)C(C)C(O)C3)CCCC21C [Compound of Example 50, (1R,2α,3R,20S)-2-methyl-19-nor-20-(4-hydroxy-4-methylpentanoyloxy)-9,10-secopregna-5Z,7E-diene-1,3-diol]
102	0.47	C=C1C(O)CC(=CC=C2CCCC3(C)C(C(C)OC(=O)CCC(C)(O)C(F)(F)F)=CCC23)CC1O [Compound of Example 56, (1R,3R,20S)-19-nor-2-methylene-20-[(4R)-5,5,5-trifluoro-4-hydroxy-4-methylpentanoyloxy]-9,10-secopregna-5Z,7E,16-triene-1,3-diol]
29	0.53	CC1[C@H](O)CC(=C/C=C2\CCC[C@]3(C)[C@@H]([C@H](C)OC(=O)CCCC(C)(C)O)CC[C@@H]23)C[C@H]1O (stereo partly drawn) [Compound of Example 58, (1R,2α,3R,20S)-2-methyl-19-nor-20-(5-hydroxy-5-methylhexanoyloxy)-9,10-secopregna-5Z,7E-diene-1,3-diol]
78	0.053	CC(OC(=O)CCC(C)(O)C(F)(F)F)C1CCC2C(=CC=C3CC(O)C(C)C(O)C3)CCCC21C [Compound of Example 60, (1R,2α,3R,20S)-2-methyl-19-nor-20-(5,5,5-trifluoro-4-hydroxy-4-methylpentanoyloxy)-9,10-secopregna-5Z,7E-diene-1,3-diol]
